Molecular target: T1, human estrogen receptor (Homo sapiens, UniProt P03372)
T1 sequence (P03372 1-595): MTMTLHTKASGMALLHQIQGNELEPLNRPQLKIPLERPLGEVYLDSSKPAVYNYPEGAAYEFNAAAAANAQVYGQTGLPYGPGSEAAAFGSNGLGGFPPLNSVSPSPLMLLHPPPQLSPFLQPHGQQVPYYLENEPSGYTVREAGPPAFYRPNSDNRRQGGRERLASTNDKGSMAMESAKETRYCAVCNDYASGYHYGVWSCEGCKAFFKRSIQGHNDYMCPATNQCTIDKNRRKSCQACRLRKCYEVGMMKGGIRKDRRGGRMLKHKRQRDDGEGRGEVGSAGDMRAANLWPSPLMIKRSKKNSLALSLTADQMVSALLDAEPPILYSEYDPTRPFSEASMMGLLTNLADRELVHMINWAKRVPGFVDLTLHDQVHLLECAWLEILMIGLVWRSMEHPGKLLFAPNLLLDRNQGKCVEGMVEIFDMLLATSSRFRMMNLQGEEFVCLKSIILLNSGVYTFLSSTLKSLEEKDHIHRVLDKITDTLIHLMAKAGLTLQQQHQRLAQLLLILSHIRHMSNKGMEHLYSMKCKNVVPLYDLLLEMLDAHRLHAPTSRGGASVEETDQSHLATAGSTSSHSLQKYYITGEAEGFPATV
Experiment: in vitro assay of estrogenic activity correlated to the MCF-7 assay
Format: cell-based
Settings: suitable in vitro assay correlated to MCF-7 assay; assay not named for hydroquinone

Row | Structure (SMILES) | estrogenic activity
1 | CC(C)(C)c1cc(O)c(C(C)(C)C)cc1O | does not exhibit appreciable estrogenic activity
2 | Oc1ccc(O)cc1 [hydroquinone] | appreciably non-estrogenic

Tested on: MCF-7, clone WS8, cells
Experiment: MCF-7 cell proliferation assay of estrogenic activity
Format: cell-based, human
Settings: logarithmic (base 10) Relative Proliferative Effect vs 17-beta estradiol in the MCF-7 assay; values called expected or measured
Excerpt: The MCF-7 assay uses MCF-7, clone WS8, cells to measure whether and to what extent a substance induces cell proliferation via estrogen receptor (ER)-mediated pathways. The method is described in “Test Method Nomination: MCF-7 Cell Proliferation Assay of Estrogenic Activity” submitted for validation by CertiChem, Inc. to the National Toxicology Program Interagency Center for the Evaluation of Alternative Toxicological Methods (NICEATM) on Jan. 19, 2006 (available online at http://iccvam.niehs.nih.gov/methods/endocrine/endodocs/SubmDoc.pdf).
A brief summary of the method of the aforementioned MCF-7 assay is provided below. MCF-7, clone WS8, cells are maintained at 37° C. in RMPI (Roswell Park Memorial Institute medium) containing Phenol Red (e.g., GIBCO Catalog Number 11875119) and supplemented with the indicated additives for routine culture. An aliquot of cells maintained at 37° C. are grown for 2 days in phenol-free media containing 5% charcoal stripped fetal bovine serum in a 25 cm^2 tissue culture flask. Using a robotic dispenser such as an epMotion 5070 unit, MCF-7 cells are then seeded at 400 cells per well in 0.2 ml of hormone-free culture medium in Corning 96-well plates. The cells are adapted for 3 days in the hormone-free culture medium prior to adding the test chemical to be assayed for activity. The media containing the test chemical is replaced daily for 6 days. At the end of the 7-day exposure to the test chemical, the media is removed, the wells are washed once with 0.2 ml of HBSS (Hanks' Balanced Salt Solution), and then assayed to quantify amounts of DNA per well using a micro-plate modification of the Burton diphenylamine (DPA) assay, which is used to calculate the level of cell proliferation.
RPE is the ratio between the EC50 of the test chemical and the EC50 of the control substance 17-beta estradiol times 100, where EC50 is “effective concentration 50^0/” or half-maximum stimulation concentration for cell proliferation measured as total DNA in the MCF-7 assay.

Row | Structure (SMILES) | Log RPE
3 | CC(C(=O)O)(c1ccc(O)cc1)c1ccc(O)cc1 | less than −4
4 | CC(C)(C)c1cc(O)c(C(C)(C)C)cc1O | less than −4
5 | CC(C)(c1cc(Br)c(O)c(Br)c1)c1cc(Br)c(O)c(Br)c1 | −3
6 | C[C@]12CC[C@@H]3c4ccc(O)cc4CC[C@H]3[C@@H]1CC[C@@H]2O [17β-estradiol] | 2.00
7 | O=S(=O)(c1ccc(O)cc1)c1ccc(O)cc1 [Bisphenol S] | −2
